This passage reports IC50 results from patent publication US20230061417A1, “THIENOPYRIMIDINE DERIVATIVES AS LPA RECEPTOR 2 INHIBITORS” (CHIESI FARMACEUTICI S.P.A., priority 2019, published 2023).

For this test, the target named is T1, human recombinant LPA2 (Homo sapiens, UniProt Q9HBW0).
T1 construct: expressed in transfected cells; host or cells: CHO (CHO-hLPA2 cell line)
T1 sequence (Q9HBW0 whole entry): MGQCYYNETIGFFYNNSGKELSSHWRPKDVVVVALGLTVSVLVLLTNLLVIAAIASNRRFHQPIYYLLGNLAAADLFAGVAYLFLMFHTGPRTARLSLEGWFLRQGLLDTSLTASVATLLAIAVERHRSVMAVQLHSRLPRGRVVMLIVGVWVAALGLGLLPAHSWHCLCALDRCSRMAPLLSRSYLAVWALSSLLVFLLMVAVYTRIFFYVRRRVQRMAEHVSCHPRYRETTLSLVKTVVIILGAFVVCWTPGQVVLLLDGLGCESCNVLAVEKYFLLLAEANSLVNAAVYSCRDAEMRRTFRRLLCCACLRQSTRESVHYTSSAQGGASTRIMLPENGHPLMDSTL
In words: FLIPR calcium mobilization assay, LPA2 antagonism in CHO-hLPA2 cells. It counts as cell-based. The conditions noted are these: human recombinant LPA2 in CHO cells, LPA EC80 stimulation, 30 min pre-incubation; read-out: LPA2 IC50. As to the method: The effectiveness of compounds of the present invention as LPA2 antagonist can be determined at the human recombinant LPA2 expressed in CHO cells, using a FLIPR assay in 384 well format.
CHO-hLPA2 cell lines are cultured in a humidified incubator at 5% CO2 in DMEM/F-12 (1:1) MIXTURE with 2 mM Glutamax, supplemented with 10% of Foetal Bovine Serum, 1 mM Sodium Pyruvate, 11 mM Hepes and 1× Penicillin/Streptomycin. CHO hLPA2 cells are seeded into black walled clear-bottom 384-well plates (#781091, Greiner Bio-One GmbH) at a density of 7,500 cells per well in 50 μl culture media and grown overnight in a 37° C. humidified CO2-incubator. Serial dilutions (1:3 or 1:4, 11 points CRC) of compounds are performed in 100% DMSO at 200× the final concentration. The compounds are diluted 1:50 prior to the experiment with Assay Buffer (20 mM HEPES, 145 mM NaCl, 5 mM KCl, 5.5 mM glucose, 1 mM MgCl2 and 2 mM CaCl2, pH 7.4 containing 0.01% Pluronic F-127) to obtain a solution corresponding to […] the final concentration in the assay (4×, 2% DMSO). The final concentration of DMSO in the assay will be 0.5% in each well. Medium is removed by aspiration and cells are then incubated with 30 μl of a loading solution containing 5 μM of the cytoplasmic Ca2+ indicator Cal-520 AM in Assay Buffer containing 2.5 mM probenecid for 30 min at 37° C. incubator (cell loading). The loaded cell plates are transferred into the FLIPR instrument and calcium responses are monitored during the on-line addition protocols. For testing of compounds, after the cell loading, 10 μl/well of 4× antagonists' solution was added onto the cells. After 30 min pre-incubation (at 37° C.), 10 μl/well of 5× concentrated LPA EC80 was added and Ca2+ mobilization responses was followed during the on-line addition protocol. Intracellular peak fluorescence values subtracted by baseline fluorescence are exported and analysed to determine IC50 values, respectively. The calcium response is expressed as percentage of the maximal inhibition of the EC80 agonist response.
The raw data (peak height expressed as relative fluorescence units) are normalized and transformed into “percent of inhibition”. Curve fitting and pIC50 (−Log IC50) estimations are carried out using a four-parameter logistic model using XLfit Software.
Take `CC(=O)Nc1cc(F)c(S(=O)(=O)N2CCN(C[C@H](C)Nc3ncnc4c(C)csc34)CC2)cc1Cl` [Example 18, N-[2-chloro-5-fluoro-4-({4-[(2S)-2-({7-methylthieno[3,2-d]pyrimidin-4-yl}amino)propyl]piperazin-1-yl}sulfonyl)phenyl]acetamide]: the IC50 was less than 1000 nM.

For the molecule `COC(=O)c1cc(Br)c(S(=O)(=O)N2CCN(C[C@H](C)Nc3ncnc4c(C)csc34)CC2)s1` [Example 13, methyl 4-bromo-5-({4-[(2S)-2-({7-methylthieno[3,2-d]pyrimidin-4-yl}amino)propyl]piperazin-1-yl}sulfonyl)thiophene-2-carboxylate], the 50% inhibitory concentration (IC50) was less than 1000 nM.

Turning to `COC(=O)Nc1nc(C)c(S(=O)(=O)N2CCN(C[C@H](C)Nc3ncnc4c(C(F)(F)F)csc34)CC2)s1` [Example 1, methyl N-[4-methyl-5-({4-[(2S)-2-{[7-(trifluoromethyl)thieno[3,2-d]pyrimidin-4-yl]amino}propyl]piperazin-1-yl}sulfonyl)-1,3-thiazol-2-yl]carbamate], the IC50 was 10 to 100 nM.

On to `COC(=O)Nc1nc(C)c(S(=O)(=O)N2CCN(C[C@H](C)Nc3nc(C4CC4)nc4c(C)csc34)CC2)s1` [Example 31, methyl N-[5-({4-[(2S)-2-({2-cyclopropyl-7-methylthieno[3,2-d]pyrimidin-4-yl}amino)propyl]piperazin-1-yl}sulfonyl)-4-methyl-1,3-thiazol-2-yl]carbamate], for which the IC50 was in the range of 10 to 100 nM.

Regarding `Cc1csc2c(N[C@@H](C)CN3CCN(S(=O)(=O)c4ccc(NC(=O)c5ccncc5)cc4)CC3)ncnc12` [Example 16, N-[4-({4-[(2S)-2-({7-methylthieno[3,2-d]pyrimidin-4-yl}amino)propyl]piperazin-1-yl}sulfonyl)phenyl]pyridine-4-carboxamide], the IC50 was less than 1000 nM.

As for `COC(=O)Nc1nc(C)c(S(=O)(=O)N2CCN(C[C@H](C)Nc3nc(C4CC4)nc4c(C(F)(F)F)csc34)CC2)s1` [Example 34, methyl N-[5-({4-[(2S)-2-{[2-cyclopropyl-7-(trifluoromethyl)thieno[3,2-d]pyrimidin-4-yl]amino}propyl]piperazin-1-yl}sulfonyl)-4-methyl-1,3-thiazol-2-yl]carbamate], the IC50 was less than 10 nM.

For the molecule `Cc1csc2c(N[C@@H](C)CN3CCN(S(=O)(=O)c4ccc(-c5cc(C(F)(F)F)n(C)n5)s4)CC3)ncnc12` [Example 29, 7-methyl-N-[(2S)-1-[4-({5-[1-methyl-5-(trifluoromethyl)-1H-pyrazol-3-yl]thiophen-2-yl}sulfonyl)piperazin-1-yl]propan-2-yl]thieno[3,2-d]pyrimidin-4-amine], the concentration for half-maximal inhibition (IC50) was less than 1000 nM.

For the molecule `Cc1csc2c(N[C@@H](C)CN3CCN(S(=O)(=O)c4cnn(-c5ccc(C(F)(F)F)cn5)c4)CC3)ncnc12` [Example 25, 7-methyl-N-[(2S)-1-[4-({1-[5-(trifluoromethyl)pyridin-2-yl]-1H-pyrazol-4-yl}sulfonyl)piperazin-1-yl]propan-2-yl]thieno[3,2-d]pyrimidin-4-amine], the 50% inhibitory concentration (IC50) was less than 1000 nM.

`Cc1csc(-c2ccc(S(=O)(=O)N3CCN(C[C@H](C)Nc4ncnc5c(C)csc45)CC3)cc2)n1` [Example 17, 7-methyl-N-[(2S)-1-{4-[4-(4-methyl-1,3-thiazol-2-yl)benzenesulfonyl]piperazin-1-yl}propan-2-yl]thieno[3,2-d]pyrimidin-4-amine]: the IC50 is less than 1000 nM.

For the molecule `Cc1csc2c(N[C@@H](C)CN3CCN(S(=O)(=O)c4ccc(-c5ccno5)s4)CC3)ncnc12` [Example 21, 7-methyl-N-[(2S)-1-(4-{[5-(1,2-oxazol-5-yl)thiophen-2-yl]sulfonyl}piperazin-1-yl)propan-2-yl]thieno[3,2-d]pyrimidin-4-amine], the IC50 is less than 1000 nM.

For the molecule `CCc1nc(N[C@@H](C)CN2CCN(S(=O)(=O)c3sc(NC(=O)OC)nc3C)CC2)c2scc(C)c2n1` [Example 38, methyl N-[5-({4-[(2S)-2-({2-ethyl-7-methylthieno[3,2-d]pyrimidin-4-yl}amino)propyl]piperazin-1-yl}sulfonyl)-4-methyl-1,3-thiazol-2-yl]carbamate], the IC50 lay within 10 to 100 nM.

Turning to `CC(=O)Nc1nc(C)c(S(=O)(=O)N2CCN(C[C@H](C)Nc3nc(C4CC4)nc4c(C)csc34)CC2)s1` [Example 35, N-[5-({4-[(2S)-2-({2-cyclopropyl-7-methylthieno[3,2-d]pyrimidin-4-yl}amino)propyl]piperazin-1-yl}sulfonyl)-4-methyl-1,3-thiazol-2-yl]acetamide], the IC50 lay within 10 to 100 nM.

In the case of `CC(=O)N1CCc2cc(S(=O)(=O)N3CCN(C[C@H](C)Nc4ncnc5c(C)csc45)CC3)ccc21` [Example 24, 1-[5-({4-[(2S)-2-({7-methylthieno[3,2-d]pyrimidin-4-yl}amino)propyl]piperazin-1-yl}sulfonyl)-2,3-dihydro-1H-indol-1-yl]ethan-1-one], the IC50 was less than 1000 nM.

For `CC(=O)Nc1cc(F)c(S(=O)(=O)N2CCN(C[C@H](C)Nc3ncnc4c(C)csc34)CC2)cc1C` [Example 6, N-[5-fluoro-2-methyl-4-({4-[(2S)-2-({7-methylthieno[3,2-d]pyrimidin-4-yl}amino)propyl]piperazin-1-yl}sulfonyl)phenyl]acetamide], the IC50 was less than 1000 nM.

As for `COC(=O)c1ccc(S(=O)(=O)N2CCN(C[C@H](C)Nc3ncnc4c(C)csc34)CC2)s1` [Example 4, Methyl 5-({4-[(2S)-2-({7-methylthieno[3,2-d]pyrimidin-4-yl}amino)propyl]piperazin-1-yl}sulfonyl)thiophene-2-carboxylate], the IC50 is less than 1000 nM.

As to `Cc1nc(NC=O)sc1S(=O)(=O)N1CCN(C[C@H](C)Nc2ncnc3c(C)csc23)CC1` [Example 26, N-[4-methyl-5-({4-[(2S)-2-({7-methylthieno[3,2-d]pyrimidin-4-yl}amino)propyl]piperazin-1-yl}sulfonyl)-1,3-thiazol-2-yl]formamide], the IC50 is less than 1000 nM.

`COC(=O)Nc1nc(C)c(S(=O)(=O)N2CCN(C[C@H](C)Nc3nc(Cl)nc4c(C(F)(F)F)csc34)CC2)s1` [Example 32, methyl N-[5-({4-[(2S)-2-{[2-chloro-7-(trifluoromethyl)thieno[3,2-d]pyrimidin-4-yl]amino}propyl]piperazin-1-yl}sulfonyl)-4-methyl-1,3-thiazol-2-yl]carbamate]: the IC50 is less than 1000 nM.

For `COC(=O)Nc1nc(C)c(S(=O)(=O)N2CCN(C[C@H](C)Nc3ncnc4c(C)csc34)CC2)s1` [Example 20, methyl N-[4-methyl-5-({4-[(2S)-2-({7-methylthieno[3,2-d]pyrimidin-4-yl}amino)propyl]piperazin-1-yl}sulfonyl)-1,3-thiazol-2-yl]carbamate], the IC50 is less than 1000 nM.

`CCC(=O)Nc1nc(C)c(S(=O)(=O)N2CCN(C[C@H](C)Nc3ncnc4c(C)csc34)CC2)s1` [Example 19, N-[4-methyl-5-({4-[(2S)-2-({7-methylthieno[3,2-d]pyrimidin-4-yl}amino)propyl]piperazin-1-yl}sulfonyl)-1,3-thiazol-2-yl]propanamide]: the IC50 was less than 1000 nM.

Turning to `Cc1nc(-c2ccc(S(=O)(=O)N3CCN(C[C@H](C)Nc4ncnc5c(C)csc45)CC3)cc2)cs1` [Example 5, 7-methyl-N-[(2S)-1-{4-[4-(2-methyl-1,3-thiazol-4-yl)benzenesulfonyl]piperazin-1-yl}propan-2-yl]thieno[3,2-d]pyrimidin-4-amine], the IC50 was less than 1000 nM.

Take `Cc1csc2c(N[C@@H](C)CN3CCN(S(=O)(=O)c4cc(Br)c(Cl)s4)CC3)ncnc12` [Example 10, N-[(2S)-1-{4-[(4-bromo-5-chlorothiophen-2-yl)sulfonyl]piperazin-1-yl}propan-2-yl]-7-methylthieno[3,2-d]pyrimidin-4-amine]: the IC50 is less than 1000 nM.

Consider `Cc1csc2c(N[C@@H](C)CN3CCN(S(=O)(=O)c4ccc(Br)c(Cl)c4)CC3)ncnc12` [Example 11, N-[(2S)-1-[4-(4-bromo-3-chlorobenzenesulfonyl)piperazin-1-yl]propan-2-yl]-7-methylthieno[3,2-d]pyrimidin-4-amine], for which the IC50 is less than 1000 nM.

`Cc1csc2c(N[C@@H](C)CN3CCN(S(=O)(=O)c4ccc(-c5ccccn5)s4)CC3)ncnc12` [Example 30, 7-methyl-N-[(2S)-1-(4-{[5-(pyridin-2-yl)thiophen-2-yl]sulfonyl}piperazin-1-yl)propan-2-yl]thieno[3,2-d]pyrimidin-4-amine]: the IC50 was less than 1000 nM.
